Laboratory results published in patent publication US20080113994A1, “Annelated Quinoline Derivatives As Pesticide” (priority 2004, published 2008).

What was measured:
Meloidogyne incognita = test: Meloidogyne test (spray treatment); format: in vivo; details: 20 g/ha, nematicidal effect from formation of galls on lettuce roots
Experimental: Meloidogyne Test (Spray Treatment)
Solvent: 80 parts by weight of acetone
Containers are filled with sand, solution of active compound, Meloidogyne incognita egg/larvae suspension, and lettuce seeds. The lettuce seeds germinate and the plants develop. On the roots, galls are formed.
After the desired time, the nematicidal effect is determined in % from the formation of galls. 100% here means that no galls were found; 0% means that the number of galls on the treated plants corresponds to that in the untreated control.

[1] = system: larvae of the army worm (Spodoptera frugiperda); test: Spodoptera frugiperda test (spray treatment); format: in vivo; details: 500 g/ha, sprayed maize leaf disks
Excerpt: Spodoptera frugiperda Test (Spray Treatment)

[2] = system: larvae of the cabbage moth (Plutella xylostella); test: Plutella test; format: in vivo; details: for Kill rate in % after 7^d: 100 PPM, dipped cabbage leaves; for efficacy (in words): Plutella test
Excerpt: Solvent: 7 parts by weight of dimethylformamide
Emulsifier: 1 part by weight of alkylaryl polyglycol ether

[3] = system: eggs of the cotton bollworm (Heliothis virescens); test: Heliothis virescens egg test (spray treatment); format: in vivo; details: 500 g/ha, sprayed soybean leaves, 100% = none of the larvae hatched
Excerpt: Heliothis virescens Egg Test (Spray Treatment)

[4] = system: larvae of the mustard beetle (Phaedon cochleariae); test: Phaedon larvae test (spray treatment); details: sprayed Chinese cabbage leaf disks
[5] = system: greenhouse red spider mite (Tetranychus urticae); test: Tetranychus test (OP-resistant/spray treatment); format: in vivo
Excerpt: Tetranychus Test (OP-Resistant/Spray Treatment)
Disks of bean leaves (Phaseolus vulgaris) which are infested by all stages of the greenhouse red spider mite (Tetranychus urticae) are sprayed with an active compound preparation in the desired concentration.

| Compound | Kill rate in % after 7^d [1] [%] | Kill rate in % after 7^d [3] [%] | Kill rate in % after 7^d ([4]; 500 g/ha) [%] | also measured |
| --- | --- | --- | --- | --- |
| COc1ccc(C2C3=C(CN(c4ccccc4)C3=O)Nc3cc4c(cc32)OCO4)cc1 (stereo not shown) |  |  |  | Kill rate in % after 14^d (Meloidogyne incognita): 70% |
| CCN1CC2=C(C1=O)C(c1ccc(OC)cc1)c1cc3c(cc1N2)OCO3 (stereo not shown) |  |  |  | Kill rate in % after 14^d (Meloidogyne incognita): 70% |
| COc1cccc(C2C3=C(COC3=O)Nc3cc4c(cc32)OCO4)c1 (stereo not shown) [Example 1, 6,7-(methylenedioxy)-9-(3-methoxyphenyl)-4,9-dihydro-3H-furo[3,4-b]quinolin-1-one] | 100 |  |  |  |
| O=C1OCC2=C1C(c1cccc(Cl)c1)c1cc3c(cc1N2)OCO3 (stereo not shown) [Example 6] | 100 | 98 |  | Kill rate in % after 7^d [2]: 100%; efficacy (in words) [2]: high efficacy |
| COc1ccc2c(c1)C(c1cc(OC)c(OC)c(OC)c1)C1=C(COC1=O)N2 (stereo not shown) [Example 8, 7-methoxy-9-(3,4,5-trimethoxyphenyl)-4,9-dihydro-3H-furo[3,4-b]quinolin-1-one] |  |  | 100 |  |
| COc1ccc2c(c1)NC1=C(C(=O)OC1)C2c1cc(OC)c(OC)c(OC)c1 (stereo not shown) [Example 9] | 100 |  |  | Kill rate in % after 7^d [2]: 90%; efficacy (in words) [2]: high efficacy |
| O=C1OCC2=C1C(c1cc(Cl)cc(Cl)c1)c1cc3c(cc1N2)OCO3 (stereo not shown) [Example 12] |  | 100 | 100 |  |
| O=C1OCC2=C1C(c1cc(F)cc(F)c1)c1cc3c(cc1N2)OCO3 (stereo not shown) [Example 16] | 100 | 97 |  |  |
| O=C1OCC2=C1C(c1ccccc1)c1cc3c(cc1N2)OCO3 (stereo not shown) [Example 17] | 100 |  |  |  |
| O=C1OCC2=C1C(c1cccc(Br)c1)c1cc3c(cc1N2)OCO3 (stereo not shown) [Example 18] |  | 98 | 100 |  |
| Cc1cccc(C2C3=C(COC3=O)Nc3cc4c(cc32)OCO4)c1 (stereo not shown) [Example 19] | 100 |  |  |  |
| O=C1OCC2=C1C(c1cccc(F)c1)c1cc3c(cc1N2)OCO3 (stereo not shown) [Example 20] |  | 96 | 83 |  |
| Cc1cc(C)cc(C2C3=C(COC3=O)Nc3cc4c(cc32)OCO4)c1 (stereo not shown) [Example 23] | 100 | 98 |  |  |
| Clc1cccc(C2C3=C(CCC3)Nc3cc4c(cc32)OCO4)c1 (stereo not shown) [Example 30] |  |  |  | Kill rate in % after 7^d ([5]; 500 g/ha, after 7 d, sprayed bean leaf disks, all stages): 70%; efficacy (in words) ([5]; Tetranychus test): high efficacy |
| CC1(C)CC(=O)C2=C(C1)Nc1cc3c(cc1C2c1cccc(Cl)c1)OCO3 (stereo not shown) [Example 31] |  | 83 |  |  |
| CC1CC2=C(C(=O)O1)C(c1cccc(Cl)c1)c1cc3c(cc1N2)OCO3 (stereo not shown) [Example 35] | 100 |  | 100 |  |
| CN1OC(C)(C)C2=C(C1=O)C(c1cccc(Cl)c1)c1cc3c(cc1N2)OCO3 (stereo not shown) [Example 36] |  | 80 |  |  |
| COc1cc(OC)cc(C2C3=C(Nc4cc5c(cc42)OCO5)C(C)OC3=O)c1 (stereo not shown) [Example 45] | 100 | 98 | 100 |  |
| COc1cc(OC)cc(C2C3=C(CCC3=O)Nc3cc4c(cc32)OCO4)c1 (stereo not shown) [Example 56] | 100 | 80 | 100 |  |
| COc1cc(C2C3=C(COC3=O)Nc3cc4c(cc32)OCO4)cc(OC)c1OC (stereo not shown) [Example 61] |  |  | 100 |  |

| Compound | Kill rate in % after 7^d [1] [%] | Kill rate in % after 7^d [3] [%] | Kill rate in % after 7^d ([4]; 500 g/ha) [%] | also measured |
| --- | --- | --- | --- | --- |
| COc1cc2c(cc1OC)C(c1ccc3c(c1)OC(F)(F)O3)C1=C(COC1=O)N2 (stereo not shown) [Example 68] |  |  |  | Kill rate in % after 14^d (Meloidogyne incognita): 80% |
| COc1cc(C2C3=C(COC3=O)N(C)c3cc4c(cc32)OCO4)cc(OC)c1OC (stereo not shown) [Example 69] |  |  | 100 |  |
| COc1cc(C2C3=C(COC3=O)Nc3cc4c(cc32)OC(F)(F)O4)cc(OC)c1OC (stereo not shown) [Example 70] |  |  | 100 |  |
| COc1cc2c(cc1OC)C(c1ccc3c(c1)OCO3)C1=C(COC1=O)N2 (stereo not shown) [Example 72] |  |  |  | Kill rate in % after 14^d (Meloidogyne incognita): 100% |
| COc1cc(OC)cc(C2C3=C(COC3=O)Nc3cc(OC)c(OC)cc32)c1 (stereo not shown) [Example 73] | 83 |  | 83 |  |
| COc1cc(OC)cc(C2C3=C(COC3=O)Nc3cc4c(cc32)OCCO4)c1 (stereo not shown) [Example 74] | 100 |  |  |  |
| COc1cc(OC)cc(C2C3=C(COC3=O)Nc3cc4c(cc32)OCCCO4)c1 (stereo not shown) [Example 75] | 100 |  | 100 |  |
| COc1cc(OC)cc(C2C3=C(COC3=O)Nc3cc(SC)ccc32)c1 (stereo not shown) [Example 84] | 100 |  |  |  |
| COc1cc(OC)cc(C2C3=C(COC3=O)Nc3ccc(OC)cc32)c1 (stereo not shown) [Example 86] | 100 |  | 100 |  |
| COc1cc(OC)cc(C2C3=C(COC3=O)Nc3c2ccc(OC)c3OC)c1 (stereo not shown) [Example 90] | 100 |  | 100 |  |
| COc1cc(OC)cc(C2C3=C(COC3=O)Nc3cc(OC)c(C)cc32)c1 (stereo not shown) [Example 93] | 100 |  | 100 |  |
| CCOc1cc2c(cc1C)C(c1cc(OC)cc(OC)c1)C1=C(COC1=O)N2 (stereo not shown) [Example 99] |  |  | 83 |  |
| COc1cc(OC)cc(C2C3=C(COC3=O)Nc3cc(OC)cc(OC)c32)c1 (stereo not shown) [Example 100] | 100 |  |  | Kill rate in % after 7^d ([4]; 100 g/ha): 83% |
| CCOc1cccc(C2C3=C(COC3=O)Nc3cc(OCC)ccc32)c1 (stereo not shown) [Example 103] | 100 |  | 100 |  |
| COc1cc(OC)cc(C2(C)C3=C(COC3=O)Nc3cc4c(cc32)OCO4)c1 (stereo not shown) [Example 107] |  | 90 |  |  |
| CCOc1cccc(C2C3=C(COC3=O)Nc3cc4c(cc32)OCO4)c1 (stereo not shown) [Example 111] | 100 |  |  |  |
| O=C1OCC2=C1C(c1cc(C(F)(F)F)cc(Cl)c1F)c1cc3c(cc1N2)OCO3 (stereo not shown) [Example 113] |  | 95 | 100 |  |
| COc1cc(C2C3=C(COC3=O)Nc3cc4c(cc32)OCO4)cc(Br)c1OC (stereo not shown) [Example 114] |  |  | 83 |  |
| O=C1OCC2=C1C(c1cncc(Br)c1)c1cc3c(cc1N2)OCO3 (stereo not shown) [Example 116] | 100 |  |  |  |
| O=C1OCC2=C1C(c1cc(Br)cc(Br)c1)c1cc3c(cc1N2)OCO3 (stereo not shown) [Example 123] | 100 | 95 |  |  |

| Compound | Kill rate in % after 7^d [1] [%] | Kill rate in % after 7^d [3] [%] | Kill rate in % after 7^d ([4]; 500 g/ha) [%] | also measured |
| --- | --- | --- | --- | --- |
| COc1c(Cl)cc(C2C3=C(COC3=O)Nc3cc4c(cc32)OCO4)cc1Cl (stereo not shown) [Example 128] | 83 |  | 100 |  |
| O=C1OCC2=C1C(c1ccc(F)c(Br)c1)c1cc3c(cc1N2)OCO3 (stereo not shown) [Example 129] | 100 | 100 |  |  |
| COc1cc(C2C3=C(COC3=O)Nc3cc4c(cc32)OCO4)cc(O)c1OC (stereo not shown) [Example 130] |  |  | 100 |  |
| COc1cc(C2C3=C(COC3=O)Nc3cc4c(cc32)OCO4)cc2c1OCO2 (stereo not shown) [Example 133] | 83 | 95 | 100 |  |
| N#CCOc1cccc(C2C3=C(COC3=O)Nc3cc4c(cc32)OCO4)c1 (stereo not shown) [Example 136] | 100 |  | 83 |  |
| COc1cc(C2C3=C(COC3=O)Nc3cc4c(cc32)OCO4)ccc1Cl (stereo not shown) [Example 139] | 100 |  | 83 |  |
| O=C1OCC2=C1C(c1ccc(F)c(Cl)c1)c1cc3c(cc1N2)OCO3 (stereo not shown) [Example 140] | 100 |  |  |  |
| COc1ccc(C2C3=C(COC3=O)Nc3cc4c(cc32)OCO4)cn1 (stereo not shown) [Example 142] | 100 |  | 100 |  |
| O=C1OCC2=C1C(c1cc(Br)c3c(c1)OCO3)c1cc3c(cc1N2)OCO3 (stereo not shown) [Example 145] | 100 |  | 83 |  |
| COc1cc(C2C3=C(COC3=O)Nc3cc4c(cc32)OCO4)ccc1F (stereo not shown) [Example 148] | 100 |  |  |  |
| O=C1OCC2=C1C(c1cccc(OCc3ccc(Cl)cc3)c1)c1cc3c(cc1N2)OCO3 (stereo not shown) [Example 149] |  | 85 |  |  |
| COc1cc(OC)c(C2C3=C(COC3=O)Nc3cc4c(cc32)OCO4)cn1 (stereo not shown) [Example 150] |  | 100 |  |  |
| O=C1OCC2=C1C(c1cc(F)c(F)c(F)c1)c1cc3c(cc1N2)OCO3 (stereo not shown) [Example 153] | 100 |  |  |  |
| COc1cc2c(c(C3C4=C(COC4=O)Nc4cc5c(cc43)OCO5)c1)OCO2 (stereo not shown) [Example 155] |  |  | 100 |  |
| O=C1OCC2=C1C(c1cccc(OC(F)(F)C(F)F)c1)c1cc3c(cc1N2)OCO3 (stereo not shown) [Example 157] | 100 |  | 100 |  |
| O=C1OCC2=C1C(c1cccc(OCCO)c1)c1cc3c(cc1N2)OCO3 (stereo not shown) [Example 158] | 100 |  |  |  |
| COc1cc(OC)cc(C2C3=C(COC3=O)Nc3cc(OC)ccc32)c1 (stereo not shown) [Example 161] | 100 | 100 | 100 |  |
| COc1cc(OC)cc(C2C3=C(COC3=O)Nc3ccc(OC)cc32)c1 (stereo not shown) [Example 162] |  | 100 |  |  |
